Assay results from US10092566B2, “Composition for controlling a gut immunity and use thereof” (SEOUL NATIONAL UNIVERSITY R&DB FOUNDATION, priority 2013, dated 2018).

Experiments:
E. carotovora-pyrE::Tn5 = assay: Gut infection and survival analysis; format: in vivo, Erwinia carotovora; details: coingestion of 1 nM uracil with E. carotovora-pyrE::Tn5
Source text: During the late exponential phase, different bacteria (E. carotovora, E. carotovora-pyrE::Tn5, E. carotovora-pyrE::Tn5-pyrE, E. carotovora-guaA::Tn5, and E. carotovora-purC::Tn5) were obtained by the centrifugation, and the pellets were washed with PBS and suspended in a 5% sucrose solution. Without a hunger stage, to continuously provide Drosophila with bacteria while being infected, male adult Drosophila (5 to 6 days old) were moved to the bottle with filter paper soaked with a 5% sucrose solution containing different bacteria. The filter paper was changed every day. During the recovery experiment, the coingestion of E. carotovora-pyrE::Tn5 (+uracil) and 1 nM of uracil or the expression of an E. carotovora-pyrE::Tn5 strain, which was genetically recovered by the expression of functional pyrE genes (+pyrE), was utilized.

DUOX = DUOX expression by qPCR; format: in vivo, Drosophila; details: uracil 20 nM
Procedure: (§1) Fluorescent RT-PCR was conducted to quantify gene expression and double-stranded DNA dye and SYBR green (Perkin Elmer, Waltham, Mass., USA) were used. To detect target gene trascriptomes, Cecropin (Sense, 5′-ATGAACTTCTACAACATCTTCG-3′ (SEQ ID NO: 5); Antisense, 5′-GGCAGTTGCGGCGACATTGGCG-3′ (SEQ ID NO: 6)), Diptericin (Sense, 5′-GGCTTATCCGATGCCCGACG-3′ (SEQ ID NO: 7); Antisense, 5′-TCTGTAGGTGTAGGTGCTTCCC-3′ (SEQ ID NO: 8)), and DUOX (Sense, 5′-GCTGCACGCCAACCACAAGAGACT-3′ (SEQ ID NO: 9); Antisense, 5′-CACGCGCAGCAGGATGTAAGGTTT-3′ (SEQ ID NO: 10)) were used, and as a control group, Rp49 (Sense, 5′-AGATCGTGAAGAAGCGCACCAAG-3′ (SEQ ID NO: 11); Antisense, 5′-CACCAGGAACTTCTTGAATCCGG-3′ (SEQ ID NO: 12)) was used. SYBR green analysis was conducted by an ABI PRISM 7700 system (PE Applied Biosystems, Foster City, Calif., USA) according to the manufacturer's instructions. All of the samples were repeated three times and analyzed, and a detected amount of mRNA was normalized with mRNA in the control group. Normalized data was used to quantify the relative amount of mRNA according to cycling threshold analysis. Targeted gene expression was expressed as the relative amount of expression.

Upd3-JAK-STAT pathway = assay: Epithelial cell renewal program and Upd3-JAK-STAT reporter analysis; format: in vivo, Drosophila
Procedure: To examine a renewal program for epithelial cells, a 5% sucrose solution containing 20 nM of uracil (for 16 hours) or different bacteria (approx. 5×10^8 cells; E. carotovora, E. carotovora-pyrE::Tn5 and E. carotovora-pyrE::Tn5-pyrE for 22 hours) was orally administered to genetically different adult Drosophila (5 to 6 days old). For the recovery experiment, Drosophila coingested URA− strain (E. carotovora-pyrE::Tn5) and 1 nM of uracil. Following the dissection of the gut, the gut was treated with primary antibodies [anti-phospho-histone H3 (1:2000 dilution; Millipore), anti-LacZ (1:1000 dilution; Cappel), or anti-Prospero (1:100 dilution; Developmental Studies Hybridoma Bank)]. Then, the gut was treated with secondary antibodies (Alexa Fluor 568 goat anti-rabbit IgG or Alexa Fluor 488 goat anti-murine IgG (Invitrogen)). DAPI was used for nuclear staining.
Drosophila containing esg-GAL4> UAS-GFP were used to analyze ISC proliferation and differentiation. A 5% sucrose solution containing 20 nM of uracil (for 16 hours) or different bacteria (E. carotovora, E. carotovora-pyrE::Tn5, and E. carotovora-pyrE::Tn5-pyrE, approx. 5×10^8 cells, for 22 hours) was orally administered to Drosophila (5 to 6 days old). For the recovery experiment, Drosophila coingested a URA− strain (E. carotovora-pyrE::Tn5) and 1 nM of uracil. […]

IMD pathway = assay: Gut IMD pathway activation (Cec expression, qPCR); format: in vivo, Drosophila; details: uracil 20 nM, 4 hours
Procedure: as §1

SMILES: O=c1cc[nH]c(=O)[nH]1 [uracil]
- host survival rate after URA− pathogen infection (E. carotovora-pyrE::Tn5): sufficient to restore the host survival rate
- DUOX gene induction (DUOX): DUOX gene induction
- restoration of infection-induced Upd3-JAK-STAT signaling, ISC proliferation, differentiation and enteroblast accumulation (Upd3-JAK-STAT pathway; coingestion of 1 nM uracil with URA− strain E. carotovora-pyrE::Tn5): sufficient to restore
- Upd3-JAK-STAT pathway activation and epithelial cell renewal by uracil ingestion alone (Upd3-JAK-STAT pathway; uracil 20 nM, PLCβ-dependent): sufficient to trigger
- gut IMD pathway activation leading to AMP production (IMD pathway): unable to activate the gut IMD pathway
